Results on 13 compounds are retold here after DBAASP.

Values after ≈ are worked out from the molar mass of the structure shown.

Among the test systems are Escherichia coli JW0013; Micrococcus luteus; Escherichia coli; Staphylococcus aureus; Klebsiella pneumoniae; Pseudomonas aeruginosa; Acinetobacter baumannii.
Holding throughout (assay): ≥ marks a high value that may be exact or a test limit, other limits are often not marked, values filed in µg/mL are converted to µM
Assay [1] concerns Pseudomonas aeruginosa ATCC 9027.
In assay [2] the test system is Staphylococcus aureus ATCC 6538.
The subject of assay [3] is Staphylococcus aureus ATCC 25923.
In assay [4] the test system is Pseudomonas aeruginosa ATCC 27853.
The subject of assay [5] is Klebsiella pneumoniae ATCC 13883.
Assay [6] has as its system Staphylococcus epidermidis.
The test system of assay [7] is Escherichia coli ATCC 25922.
Assay [8] relates to Klebsiella pneumoniae ATCC 700603.
In assay [9] the test system is Staphylococcus aureus KCTC 1621.
Assay [10] deals with Escherichia coli KCTC 1682.
Assay [11] has as its system Salmonella typhimurium KCTC 1926.
The subject of assay [12] is Pseudomonas aeruginosa KCTC 1637.
Assay [13] deals with Staphylococcus epidermidis KCTC 1917.
The subject of assay [14] is Candida albicans ATCC 10231.
Assay [15] concerns Bacillus subtilis ATCC 6633.
The test system of assay [16] is Staphylococcus aureus ATCC 29213.
Assay [17] has as its system Acinetobacter baumannii ATCC 19606.

What is called MIC is the least concentration at which growth counts as inhibited. Low values mean inhibition by little substance, high ones a need for much substance. Compound `CC[C@H](C)[C@H](NC(=O)[C@H](CCCN=C(N)N)NC(=O)[C@H](CCCN=C(N)N)NC(=O)[C@@H]1CCCN1C(=O)[C@@H]1CCCN1C(=O)[C@H](CCCN=C(N)N)NC(=O)[C@@H]1CCCN1C(=O)[C@H](CCCN=C(N)N)NC(=O)[C@@H]1CCCN1C(=O)[C@H](CC(C)C)NC(=O)[C@H](Cc1ccc(O)cc1)NC(=O)[C@@H]1CCCN1C(=O)[C@@H]1CCCN1C(=O)[C@H](CCCCN)NC(=O)[C@H](CC(=O)O)NC(=O)[C@H](C)N)C(=O)N[C@@H](Cc1ccc(O)cc1)C(=O)N[C@@H](CC(N)=O)C(=O)N[C@@H](CCCN=C(N)N)C(N)=O` [ADKPPYLPRPRPPRRIYNR] came in with an MIC against Escherichia coli JW0013 of 2.03 µM (≈ 4.8 µg/mL).

As for `CC(C)C[C@H](NC(=O)[C@H](CCCCN)NC(=O)[C@H](CCCCN)NC(=O)[C@H](C)NC(=O)[C@H](CC(C)C)NC(=O)[C@H](CCCCN)NC(=O)[C@H](C)NC(=O)[C@H](CCCCN)NC(=O)[C@H](CCCCN)NC(=O)[C@H](C)NC(=O)[C@H](CC(C)C)NC(=O)[C@H](CCCCN)NC(=O)[C@H](CCCCN)NC(=O)[C@H](C)NC(=O)[C@@H](N)Cc1ccccc1)C(N)=O` [FAKKLAKKAKLAKKL], the MIC was 59.3 µM (≈ 99.9 µg/mL) in assay [1] and 119 µM (≈ 200 µg/mL) in assay [2].

In the case of `CC(C)C[C@H](NC(=O)[C@H](CCCCN)NC(=O)[C@H](CC(C)C)NC(=O)[C@H](C)NC(=O)[C@H](CCCCN)NC(=O)[C@H](C)NC(=O)[C@H](CC(C)C)NC(=O)[C@H](CC(C)C)NC(=O)[C@H](CCCCN)NC(=O)[C@H](CCCCN)NC(=O)[C@H](C)NC(=O)[C@@H](N)Cc1ccccc1)C(N)=O` [FAKKLLAKALKL], the MIC is 149 µM (≈ 200 µg/mL) in assay [1] and more than 149 µM in [2].

With `CC(C)C[C@H](NC(=O)[C@H](C)NC(=O)[C@H](CCCCN)NC(=O)[C@H](CCCCN)NC(=O)[C@H](C)NC(=O)[C@H](CCCCN)NC(=O)[C@H](CCCCN)NC(=O)[C@H](CC(C)C)NC(=O)[C@H](C)NC(=O)[C@H](CCCCN)NC(=O)[C@H](CCCCN)NC(=O)[C@H](C)NC(=O)[C@H](CC(C)C)NC(=O)[C@H](C)NC(=O)[C@@H](N)Cc1ccccc1)C(N)=O` [FALAKKALKKAKKAL], the figures for the MIC in [1] and in assay [2] were 15.3 µM (≈ 25 µg/mL) and 61.4 µM (≈ 99.9 µg/mL), respectively.

As to `CC(C)C[C@H](NC(=O)[C@H](C)NC(=O)[C@H](CCCCN)NC(=O)[C@H](CCCCN)NC(=O)[C@H](CC(C)C)NC(=O)[C@H](C)NC(=O)[C@H](CCCCN)NC(=O)[C@H](CC(C)C)NC(=O)[C@H](C)NC(=O)[C@H](CC(C)C)NC(=O)[C@H](C)NC(=O)[C@@H](N)Cc1ccccc1)C(N)=O` [FALALKALKKAL], the minimum inhibitory concentration (MIC) in assay [1] worked out at 38.9 µM (≈ 50 µg/mL); in assay [2] it was 3.89 µM (≈ 5 µg/mL).

As for `CC[C@H](C)[C@H](NC(=O)CNC(=O)[C@H](CO)NC(=O)[C@H](CC(C)C)NC(=O)[C@H](C)NC(=O)[C@H](CC(=O)O)NC(=O)[C@H](CC(C)C)NC(=O)[C@H](CC(C)C)NC(=O)CN)C(=O)N[C@@H](CC(C)C)C(=O)NCC(=O)N[C@@H](CC(C)C)C(N)=O` [GLLDALSGILGL], the MIC in the assay with Micrococcus luteus amounted to 21.9 µM (≈ 25 µg/mL).

As for `CC(C)[C@H](NC(=O)CNC(=O)[C@@H](N)Cc1cnc[nH]1)C(=O)N[C@@H](CO)C(=O)NCC(=O)N[C@@H](Cc1cnc[nH]1)C(=O)NCC(=O)N[C@@H](CCC(N)=O)C(=O)N[C@@H](Cc1cnc[nH]1)C(=O)NCC(=O)N[C@H](C(=O)N[C@@H](Cc1cnc[nH]1)C(=O)NCC(=O)O)[C@@H](C)O` [HGVSGHGQHGTHG], the MIC in assay [3] was 6.31 µM (≈ 8 µg/mL); in assay [4], 6.31 µM (≈ 8 µg/mL); in [5] it was 6.31 µM (≈ 8 µg/mL); against Escherichia coli, 6.31 µM (≈ 8 µg/mL); against Staphylococcus aureus, 12.6 µM (≈ 16 µg/mL); in assay [6] it was 12.6 µM (≈ 16 µg/mL). In addition, the MIC is 6.31 µM (≈ 8 µg/mL) against Klebsiella pneumoniae, 12.6 µM (≈ 16 µg/mL) in the assay with Pseudomonas aeruginosa and 3.16 µM (≈ 4 µg/mL) in assay [7].

Consider `CC[C@H](C)[C@H](NC(=O)[C@H](Cc1ccc(O)cc1)NC(=O)[C@H](CCCCN)NC(=O)[C@H](CCCCN)NC(=O)[C@H](CC(C)C)NC(=O)[C@H](CC(C)C)NC(=O)[C@H](CCCCN)NC(=O)[C@H](CCCCN)NC(=O)[C@@H](NC(=O)[C@H](CC(C)C)NC(=O)[C@@H](N)CCCCN)C(C)C)C(=O)N[C@H](C(=O)N[C@@H](Cc1ccccc1)C(=O)O)[C@@H](C)O` [KLVKKLLKKYITF], for which the MIC in [3] is more than 64 µM; in [1], 4 µM (≈ 6.49 µg/mL); in assay [8] it was more than 64 µM; in the assay with Acinetobacter baumannii, not below 64 µM; in assay [7], more than 64 µM.

As to `C[C@H](NC(=O)[C@H](Cc1c[nH]c2ccccc12)NC(=O)[C@H](CCCCN)NC(=O)[C@H](CCCN=C(N)N)NC(=O)CNC(=O)[C@H](Cc1c[nH]c2ccccc12)NC(=O)[C@H](CCCN=C(N)N)NC(=O)[C@H](CCCN=C(N)N)NC(=O)[C@H](Cc1c[nH]c2ccccc12)NC(=O)CNC(=O)[C@@H](N)CCCN=C(N)N)C(=O)N[C@@H](Cc1cnc[nH]1)C(=O)NCC(=O)N[C@@H](Cc1c[nH]c2ccccc12)C(=O)N[C@@H](CCCCN)C(=O)N[C@@H](CCCCN)C(=O)N[C@@H](Cc1ccc(O)cc1)C(=O)NCC(N)=O` [RGWRRWGRKWAHGWKKYG], the minimum inhibitory concentration (MIC) in assay [9] was determined as 4 µM (≈ 9.48 µg/mL); in assay [10], 4 µM (≈ 9.48 µg/mL); in assay [11], 2 µM (≈ 4.74 µg/mL); in [12], 8 µM (≈ 19 µg/mL); in assay [13], 2 µM (≈ 4.74 µg/mL).

Compound `CC(C)C[C@H](NC(=O)[C@H](CCCN=C(N)N)NC(=O)[C@@H]1CCCN1C(=O)[C@@H]1CCCN1C(=O)[C@H](CCCN=C(N)N)NC(=O)[C@@H]1CCCN1C(=O)[C@H](CCCN=C(N)N)NC(=O)[C@H](CCCN=C(N)N)NC(=O)[C@H](CCCN=C(N)N)NC(=O)[C@@H](N)CCCN=C(N)N)C(=O)N1CCC[C@H]1C(=O)N[C@@H](CCCN=C(N)N)C(=O)N1CCC[C@H]1C(=O)N[C@@H](CCCN=C(N)N)C(=O)N1CCC[C@H]1C(=O)N[C@@H](CCCN=C(N)N)C(=O)O` [RRRRPRPPRLPRPRPR] showed an MIC with Escherichia coli JW0013 of 0.3 µM (≈ 0.636 µg/mL).

Regarding `CC(C)C[C@H](NC(=O)[C@@H]1CCCN1C(=O)[C@H](CCCCN)NC(=O)[C@@H]1CCCN1C(=O)[C@H](Cc1ccc(O)cc1)NC(=O)[C@H](CCCCN)NC(=O)[C@H](Cc1c[nH]c2ccccc12)NC(=O)[C@@H](N)CCCN=C(N)N)C(=O)N[C@@H](CCCCN)C(=O)N[C@@H](CCCN=C(N)N)C(=O)O` [RWKYPKPLKR], the minimal inhibitory concentration (MIC) in [3] was more than 72.9 µM; in assay [14], 54.7 µM (≈ 75 µg/mL); in [15] it was 27.3 µM (≈ 37.5 µg/mL); in [7], 54.7 µM (≈ 75 µg/mL).

As for `C[C@H](NC(=O)[C@@H]1CCCN1C(=O)[C@H](CCCN=C(N)N)NC(=O)[C@H](Cc1ccc(O)cc1)NC(=O)CNC(=O)[C@H](CC(N)=O)NC(=O)[C@@H](N)CO)C(=O)N[C@@H](Cc1ccc(O)cc1)C(=O)N[C@@H](CCCN=C(N)N)C(=O)N1CCC[C@H]1C(=O)N[C@@H](C)C(=O)N[C@@H](Cc1ccc(O)cc1)C(=O)N[C@@H](CCCN=C(N)N)C(=O)N1CCC[C@H]1C(=O)N[C@@H](CO)C(=O)N[C@@H](Cc1ccc(O)cc1)C(=O)N[C@@H](CCCN=C(N)N)C(=O)N1CCC[C@H]1C(N)=O` [SNGYRPAYRPAYRPSYRP], the MIC in assay [16] is 32 µM (≈ 69.5 µg/mL); in [17], more than 32 µM; against Escherichia coli, more than 32 µM; against Staphylococcus aureus it was more than 32 µM; against Acinetobacter baumannii, not below 32 µM; in assay [7] it was 32 µM (≈ 69.5 µg/mL).

In the case of `CC[C@H](C)[C@H](NC(=O)[C@H](CCCN=C(N)N)NC(=O)[C@H](CCCN=C(N)N)NC(=O)[C@@H]1CCCN1C(=O)[C@@H]1CCCN1C(=O)[C@H](CCCN=C(N)N)NC(=O)[C@@H]1CCCN1C(=O)[C@H](CCCN=C(N)N)NC(=O)[C@@H]1CCCN1C(=O)[C@H](CC(C)C)NC(=O)[C@H](Cc1ccc(O)cc1)NC(=O)[C@@H]1CCCN1C(=O)[C@H](C)NC(=O)[C@H](CCCCN)NC(=O)[C@H](CC(=O)O)NC(=O)[C@@H](N)C(C)C)C(=O)N[C@@H](Cc1ccc(O)cc1)C(=O)N[C@@H](CC(N)=O)C(=O)N[C@@H](CCCN=C(N)N)C(N)=O` [VDKAPYLPRPRPPRRIYNR], the MIC with Escherichia coli JW0013 is 1.4 µM (≈ 3.3 µg/mL).
